Molecules are shown by their SMILES. “And” between values parts separate entries of the source, which are not always exact repeats. Equal values may be shown once.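 Compound exposure: 48 hours, 5 concentrations, 96-well plates. GI50 marks 50% less growth. At the TGI there is no net growth.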 Where a SMILES comes first, the peptide text is derived from it. [ ]: non-standard residue; d: D form. The star is where a group is joined. ξ: configuration not given here. ξPhe(4-NO2) = NC(Cc1ccc([N+](=O)[O-])cc1)C(=O)O; Boc = CC(C)(C)OC(=O)*; OBn = c1ccc(CO*)cc1

Test systems include A549 NSCLC; PC-3 prostate; TK-10 renal; SK-OV-3 ovarian; SK-MEL-28 melanoma; MDA-MB-231 breast; SK-MEL-5 melanoma; BT-549 breast; NCI-H23 lung; SN12C renal.
Common to all, as to assay: NCI tumour cell line growth inhibition, 48 h

`O=c1oc2ccccc2cc1-c1nnc(-c2ccccc2)s1`: the TGI is more than 100 µM in the assay on A549 NSCLC; more than 100 µM in the assay with PC-3 prostate; more than 53.8 µM in the assay with TK-10 renal; more than 90 µM with SK-OV-3 ovarian; more than 100 µM in the assay on SK-MEL-28 melanoma; 46.3 µM with MDA-MB-231 breast. Also, the TGI in the assay with SK-MEL-5 melanoma, in the assay with BT-549 breast, in the assay with NCI-H23 lung and in the assay with SN12C renal was more than 100 µM throughout.
Take `CN(C)CCOC1(Cc2ccc(Cl)cc2Cl)CCC(C(C)(C)C)CC1` (centres undefined): the TGI was 5.85 µM and 4.22 µM in the assay on A549 NSCLC; 3.68 µM and 4.1 µM in the assay on PC-3 prostate; 4.99 µM and 2.75 µM in the assay on TK-10 renal; 4.22 µM and 11 µM in the assay with SK-OV-3 ovarian; 3.2 µM and 2.83 µM in the assay on SK-MEL-28 melanoma; 8.16 µM and 3.34 µM with MDA-MB-231 breast. Further, the TGI in the assay on SK-MEL-5 melanoma is 3.07 µM and 3.61 µM; in the assay with BT-549 breast, 3.16 µM and 3.25 µM; with NCI-H23 lung it was 5.74 µM and 4.15 µM; in the assay with SN12C renal, 3.32 µM. Further, the GI50 with TK-10 renal is 2.02 µM; with SK-OV-3 ovarian it was 4.79 µM; in the assay on MDA-MB-231 breast it was 3.39 µM; with SK-MEL-5 melanoma, 2.05 µM.
In the case of `C=C1CC2(OC1=O)c1ccccc1C=Cc1ccccc12`, the TGI was determined as 23.3 µM with A549 NSCLC; 16.3 µM in the assay with PC-3 prostate; 11.1 µM in the assay on TK-10 renal; 30.8 µM with SK-OV-3 ovarian; 9.32 µM in the assay on SK-MEL-28 melanoma; 5.41 µM with MDA-MB-231 breast. Moreover, the TGI came out at 16.4 µM with SK-MEL-5 melanoma, 3.61 µM with BT-549 breast, 14.7 µM with NCI-H23 lung and 7.14 µM in the assay on SN12C renal.
As for `CC1=CCC[C@@](C)(O)[C@@H]2C[C@H]3C(CSc4ccccc4)C(=O)O[C@H]3[C@@H](O2)[C@H](C)CCC1` (some centres undefined), the TGI with A549 NSCLC was 27.1 µM; with PC-3 prostate, 22.2 µM; in the assay with TK-10 renal, 33.5 µM; in the assay with SK-OV-3 ovarian it was 37.9 µM; in the assay with SK-MEL-28 melanoma it was 52.9 µM; in the assay with MDA-MB-231 breast it was more than 100 µM. The TGI in the assay with SK-MEL-5 melanoma was 38.3 µM; in the assay with BT-549 breast it was 46.2 µM; in the assay with NCI-H23 lung it was 33.8 µM; with SN12C renal it was more than 100 µM.
For the compound `C/C(=N\NC(=O)/C(C#N)=C\c1ccc(N(CCC#N)CCC#N)cc1)c1ccccc1`, the TGI in the assay with A549 NSCLC, in the assay with PC-3 prostate, in the assay with TK-10 renal, in the assay on SK-OV-3 ovarian, in the assay with SK-MEL-28 melanoma and in the assay on MDA-MB-231 breast was more than 10 µM throughout. Besides, the TGI in the assay with SK-MEL-5 melanoma, in the assay with BT-549 breast, in the assay on NCI-H23 lung and in the assay with SN12C renal was more than 10 µM in each case.
`CC(C)(C)OC(=O)NC(Cc1ccc([N+](=O)[O-])cc1)C(=O)NCC(=O)OCc1ccccc1` (centres undefined) (Boc-[ξPhe(4-NO2)]-Gly-OBn): the TGI with A549 NSCLC is more than 100 µM; in the assay with PC-3 prostate it was 49.6 µM; in the assay on TK-10 renal it was more than 100 µM; in the assay with SK-OV-3 ovarian, 64.8 µM; in the assay on SK-MEL-28 melanoma, 47.3 µM; with MDA-MB-231 breast it was 80.3 µM. Besides, the TGI with SK-MEL-5 melanoma turned out to be 46.2 µM; in the assay with BT-549 breast, 59.6 µM; in the assay on NCI-H23 lung, 47.5 µM; with SN12C renal it was 45.9 µM.
For `Cn1cnc2c(OCC3CCCCC3)nc(N)nc21`, the TGI with A549 NSCLC, in the assay on PC-3 prostate, with TK-10 renal, in the assay with SK-OV-3 ovarian, in the assay with SK-MEL-28 melanoma and in the assay on MDA-MB-231 breast was more than 100 µM in each case. For the same compound, the TGI in the assay on SK-MEL-5 melanoma, with BT-549 breast, in the assay with NCI-H23 lung and with SN12C renal was more than 100 µM in each case.
For the compound `COc1ccc(OC)c(NC(=O)C(=O)Nn2c(=S)[nH]c3ccccc3c2=O)c1`, the TGI in the assay with A549 NSCLC, in the assay on PC-3 prostate, in the assay with TK-10 renal, in the assay on SK-OV-3 ovarian, in the assay on SK-MEL-28 melanoma and with MDA-MB-231 breast was more than 100 µM in each case. For the same compound, the TGI in the assay on SK-MEL-5 melanoma, in the assay with BT-549 breast, with NCI-H23 lung and with SN12C renal was more than 100 µM each time.
For the compound `COc1cc2c(cc1OC)C1C(O)C(OC)C=C3CC[N+](C)(C2)C31` (centres undefined), the TGI in the assay with A549 NSCLC, in the assay on PC-3 prostate, in the assay with TK-10 renal, with SK-OV-3 ovarian, in the assay on SK-MEL-28 melanoma and with MDA-MB-231 breast was more than 100 µM throughout. Also, the TGI in the assay on SK-MEL-5 melanoma, in the assay with BT-549 breast, in the assay on NCI-H23 lung and in the assay with SN12C renal was more than 100 µM throughout.
Consider `CN1CC2=C(NC(=S)NC2c2ccc(Cl)cc2)/C(=C/c2ccc(Cl)cc2)C1` (centres undefined), for which the TGI is 45.1 µM in the assay on A549 NSCLC; 23.1 µM with PC-3 prostate; more than 100 µM in the assay on TK-10 renal; 31.4 µM in the assay on SK-OV-3 ovarian; 33.9 µM with SK-MEL-28 melanoma; 39.8 µM in the assay on MDA-MB-231 breast. The TGI was determined as 26.8 µM in the assay with SK-MEL-5 melanoma, 48.6 µM in the assay with BT-549 breast, 43.8 µM in the assay on NCI-H23 lung and 36.4 µM in the assay with SN12C renal.
For the compound `CC1(C)[C@@H]2C[C@H]1C(Cc1ccc(C[C@H]3c4cc(-c5ccccn5)ncc4[C@H]4C[C@@H]3C4(C)C)cc1)c1cc(-c3ccccn3)ncc12` (some centres undefined), the TGI is 87.9 µM in the assay with A549 NSCLC; 22.8 µM in the assay with PC-3 prostate; more than 100 µM in the assay with TK-10 renal; more than 100 µM with SK-OV-3 ovarian; 79.7 µM with SK-MEL-28 melanoma; more than 100 µM with MDA-MB-231 breast. In addition, the TGI is 7.81 µM with SK-MEL-5 melanoma, more than 100 µM in the assay on BT-549 breast, 37 µM in the assay on NCI-H23 lung and 23.3 µM with SN12C renal.
Consider `Cc1ccc(S(=O)(=O)[N-]C2C(=O)c3ccccc3C(=O)C2[n+]2cccc(C(N)=O)c2)cc1` (centres undefined), for which the TGI with A549 NSCLC, in the assay with PC-3 prostate, with TK-10 renal, in the assay with SK-OV-3 ovarian, in the assay with SK-MEL-28 melanoma and in the assay with MDA-MB-231 breast was more than 100 µM in each case. In addition, the TGI in the assay on SK-MEL-5 melanoma, in the assay with BT-549 breast, in the assay on NCI-H23 lung and in the assay with SN12C renal was more than 100 µM each time.
Consider `CCC(CC)C(=O)OC[n+]1cccc(-c2c(COC(=O)NC(C)C)c(COC(=O)NC(C)C)c3n2CCC3)c1`, for which the TGI in the assay with A549 NSCLC, in the assay with PC-3 prostate, in the assay with TK-10 renal, in the assay with SK-OV-3 ovarian, in the assay on SK-MEL-28 melanoma and with MDA-MB-231 breast was more than 100 µM in each case. For the same compound, the TGI with SK-MEL-5 melanoma, with BT-549 breast, in the assay on NCI-H23 lung and in the assay on SN12C renal was more than 100 µM throughout.

The values are drawn from PubChem BioAssay (NCI).
